Measured values published in patent publication US11230717B2, “Plants having increased tolerance to herbicides” (BASF SE, priority 2013, dated 2022).

How the values were obtained:
[1] = biological target: T1, Hordeum HPPD variant L320N (Hordeum vulgare, UniProt O48604, A164G/L320N/R146V/R147D/R148G); assay: HPPD activity assay, in vitro characterization of HPPD mutants; format: biochemical; conditions: normalized to wild-type
T1 construct: His (N); made in house; host or cells: E. coli BL21 (DE3)
T1 sequence (O48604 whole entry R146V/R147D/R148G/A164G/L320N): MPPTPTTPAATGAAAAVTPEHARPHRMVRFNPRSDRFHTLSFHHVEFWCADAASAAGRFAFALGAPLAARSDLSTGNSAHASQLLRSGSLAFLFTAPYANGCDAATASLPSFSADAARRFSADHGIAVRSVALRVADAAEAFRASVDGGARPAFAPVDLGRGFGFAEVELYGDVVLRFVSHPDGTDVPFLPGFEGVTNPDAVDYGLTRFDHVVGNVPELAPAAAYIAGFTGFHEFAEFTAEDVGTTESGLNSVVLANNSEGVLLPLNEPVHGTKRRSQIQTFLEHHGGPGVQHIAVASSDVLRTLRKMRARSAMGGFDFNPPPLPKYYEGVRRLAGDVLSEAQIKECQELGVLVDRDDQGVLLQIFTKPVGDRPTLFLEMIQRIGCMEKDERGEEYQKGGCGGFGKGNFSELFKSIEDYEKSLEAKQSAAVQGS
Experimental: (§1) HPPD produces homogentisic acid and CO2 from 4-hydroxyphenylpyruvate (4-HPP) and O2. The activity assay for HPPD is based on the analysis of homogentisic acid by reversed phase HPLC.
(§2) The assay mixture can contain 150 mM potassium phosphate buffer pH 7.0, 50 mM L-ascorbic acid, 100 μM Catalase (Sigma-Aldrich), 1 μM FeSO4 and 0.2 units of purified HPPD enzyme in a total volume of 505 μl. 1 unit is defined as the amount of enzyme that is required to produce 1 nmol of HGA per minute at 20° C.
(§3) After a preincubation of 30 min the reaction is started by adding 4-HPP to a final concentration of 0.05 mM. The reaction is allowed to proceed for 45 min at room temperature. The reaction is stopped by the addition of 50 μl of 4.5 M phosphoric acid. The sample is filtered using a […] pore size PVDF filtration device.
(§4) 5 μl of the cleared sample is analyzed on an UPLC HSS T3 column (particle size 1.8 μm, dimensions 2,1×50 mm; Waters) by isocratic elution using 90% 20 mM NaH2PO4 pH 2.2, 10% methanol (v/v).
(§5) HGA is detected electrochemically at 750 mV (mode: DC; polarity: positive) and quantified by integrating peak areas (Empower software; Waters).
(§6) Inhibitors are dissolved in DMSO (dimethylsulfoxide) to a concentration of 0.5 mM. From this stock solution serial five-fold dilutions are prepared in DMSO, which are used in the assay. The respective inhibitor solution accounts for 1% of the assay volume. […] Activities are normalized by setting the uninhibited enzyme activity to 100%. IC50 values are calculated using non-linear regression.
(§7) Purified, mutant HPPD enzymes are obtained by the methods described above. Dose response and kinetic measurements are carried out using the described HPPD activity assay. Apparent michaelis constants (Km) and maximal reaction velocities (Vmax) are calculated by non-linear regression with the software GraphPad Prism 5 (GraphPad Software, La Jolla, USA) using a substrate inhibition model. […] Weighted means (by standard error) of Km and IC50 values are calculated from at least three independent experiments.
(§8) Field performance of the optimized HPPD enzyme, which is used as a herbicide tolerance trait may depend not only on its lack of sensitivity towards HPPD inhibiting herbicides but also on its activity. To assess the potential performance of a herbicide tolerance trait a tolerance index (TI) is calculated using the following formula: […]

[2] = biological target: T2, Hordeum HPPD variant L353M, P321R, L320Q (Hordeum vulgare, UniProt O48604, L320Q/L353M/P321R); assay: as above; format: biochemical; conditions: normalized to wild-type
T2 construct: His (N); made in house; host or cells: E. coli BL21 (DE3)
T2 sequence (O48604 whole entry R146V/R147D/R148G/A164G/L320Q/P321R/L353M): as the sequence (O48604 whole entry R146V/R147D/R148G/A164G/L320N) above, with N320Q, P321R, L353M counted along it
Experimental: as §1, §2, §3, §4, §5, §6, §7, §8

transgenic Corn plants = assay: Greenhouse testing of transgenic Corn plants (homozygous T2), herbicide spray test; format: in vivo, Zea mays
Experimental: Transgenic plants expressing heterologous HPPD or HST enzymes are tested for tolerance against HPPD-inhibiting herbicides in greenhouse experiments.
For post emergence treatment, the test plants are first grown to a height of 3 to 15 cm, depending on the plant habit, and only then treated with the herbicides. For this purpose, the test plants are either sown directly and grown in the same containers, or they are first grown separately and transplanted into the test containers a few days prior to treatment. For testing of T0 plants, cuttings can be used. In the case of soybean plants, an optimal shoot for cutting is about 7.5 to 10 cm tall, with at least two nodes present. Each cutting is taken from the original transformant (mother plant) and dipped into rooting hormone powder (indole-3-butyric acid, IBA). The cutting is then placed in oasis wedges inside a bio-dome. Wild type cuttings are also taken simultaneously to serve as controls. The cuttings are kept in the bio-dome for 5-7 days and then transplanted to pots and then acclimated in the growth chamber for two more days. Subsequently, the cuttings are transferred to the greenhouse, acclimated for approximately 4 days, and then subjected to spray tests as indicated.
Depending on the species, the plants are kept at 10-25° C. or 20-35° C. The test period ex-tends over 3 weeks. During this time, the plants are tended and their response to the individual treatments is evaluated. Herbicide injury evaluations are taken at 2 and 3 weeks after treatment. Plant injury is rated on a scale of 0 to 9, 0 being no injury and 9 being complete death.
Transgenic corn plants were sprayed with doses from 62.5-250 g/ha with the benzamide-derivative HPPD-inhibiting herbicide and injury evaluations were taken two weeks after treatment. […] As depicted in Table 19, control plants were severely injured by all doses of herbicide applied, with 86% of leaf material being damaged at the highest rate applied. […] Application of 250 g/ha active ingredient resulted only in 10% leaf damage (event 1) in transgenic plants which gave in direct comparison with wild-type plants (injury value is 86%) an 8-fold increased tolerance at this application rate. In addition, transgenic corn plants comprising a transgene encoding the mutated version of Arabidopsis HPPD with methionine 335 exchanged to histidine, are tolerant for the benzamide-derivative inhibitor tested in the present invention.

[3] = biological target: T3, Arabidopsis HPPD variant F381I (Arabidopsis thaliana, UniProt P93836, F381I); assay: HPPD activity assay, in vitro characterization of HPPD mutants; format: biochemical; conditions: normalized to wildtype
T3 construct: His6 (N); made in house; host or cells: E. coli BL21 (DE3)
T3 sequence (P93836 whole entry F381I): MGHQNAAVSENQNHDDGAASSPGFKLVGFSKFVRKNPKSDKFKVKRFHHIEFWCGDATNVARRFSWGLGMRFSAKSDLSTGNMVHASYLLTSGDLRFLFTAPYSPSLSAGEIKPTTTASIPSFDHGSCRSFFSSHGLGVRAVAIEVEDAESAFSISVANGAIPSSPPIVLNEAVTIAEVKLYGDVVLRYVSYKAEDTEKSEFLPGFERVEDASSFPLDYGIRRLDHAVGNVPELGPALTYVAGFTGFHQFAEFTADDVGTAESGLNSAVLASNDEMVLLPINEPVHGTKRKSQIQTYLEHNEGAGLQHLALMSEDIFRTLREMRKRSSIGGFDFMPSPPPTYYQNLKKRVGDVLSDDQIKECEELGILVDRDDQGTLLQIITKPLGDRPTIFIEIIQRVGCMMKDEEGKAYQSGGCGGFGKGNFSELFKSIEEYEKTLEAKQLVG
Experimental: as §1, §2, §3, §4, §5, §6, §7, §8

| Compound | Normalized tolerance index (TI) [1] | Normalized tolerance index (TI) [2] | Injury evaluation, scale 0-100% (transgenic Corn plants; Corn AtL385V, I393L Event 1, 62.5 g/ha, two weeks) [%] | Injury evaluation, scale 0-100% (transgenic Corn plants; Corn AtL385V, I393L Event 1, 125 g/ha, two weeks) [%] | Injury evaluation, scale 0-100% (transgenic Corn plants; Corn AtL385V, I393L Event 1, 250 g/ha, two weeks) [%] | Injury evaluation, scale 0-100% (transgenic Corn plants; Corn AtL385V, I393L Event 2, 62.5 g/ha, two weeks) [%] | Injury evaluation, scale 0-100% (transgenic Corn plants; Corn AtL385V, I393L Event 2, 125 g/ha, two weeks) [%] | Injury evaluation, scale 0-100% (transgenic Corn plants; Corn AtL385V, I393L Event 2, 250 g/ha, two weeks) [%] | Injury evaluation, scale 0-100% (transgenic Corn plants; Corn AtM335H, 62.5 g/ha, two weeks) [%] | Injury evaluation, scale 0-100% (transgenic Corn plants; Corn AtM335H, 125 g/ha, two weeks) [%] | Injury evaluation, scale 0-100% (transgenic Corn plants; Corn AtM335H, 250 g/ha, two weeks) [%] | Injury evaluation, scale 0-100% (transgenic Corn plants; Corn WT, 62.5 g/ha, two weeks after treatment) [%] | Injury evaluation, scale 0-100% (transgenic Corn plants; Corn WT, 125 g/ha, two weeks after treatment) [%] | Injury evaluation, scale 0-100% (transgenic Corn plants; Corn WT, 250 g/ha, two weeks after treatment) [%] | Normalized tolerance index (TI) [3] |
| --- | --- | --- | --- | --- | --- | --- | --- | --- | --- | --- | --- | --- | --- | --- | --- |
| Cn1nnnc1NC(=O)c1c(F)cc(Cl)c(S(C)(=O)=O)c1Cl [Inhibitor 1, 2,4-dichloro-6-fluoro-3-methylsulfonyl-N-(1-methyltetrazol-5-yl)benzamide] | 5.2 | 2.5 |  |  |  |  |  |  |  |  |  |  |  |  |  |
| CSc1c(Cl)cc(F)c(C(=O)Nc2ncnn2C)c1Cl [Inhibitor 3, 2,4-dichloro-6-fluoro-3-methylsulfanyl-N-(2-methyl-1,2,4-triazol-3-yl)benzamide] |  |  | 3 | 7 | 10 | 6 | 10 | 47 | 3 | 4 | 6 | 40 | 63 | 86 | 0.1 |
